Bounds are passed on as bounds.

Data on nine compounds can be found in patent US6015560A, “Antibody recognizing endothelial cell ligand for leukocyte CR3” (priority 1995, dated 2000).

One series relates to B. pertussis. The settings on record: in vivo; cited from earlier work.
In a further series the test system is albumin. As to conditions: cited from earlier work.
The next series relates to blood brain barrier. As to the kind of experiment: Rabbit meningitis model: CSF protein and lactate (blood brain barrier permeability). The format is in vivo. The method, then: (§1) The rabbit model was performed according to an established protocol. Specific pathogen free, New Zealand white rabbits (2 kg; Hare Marland, Nutley, N.J.) were anesthetized with valium (2.5 mg/kg, subcutaneously, Hoffman-LaRoche, Nutley, N.J.), ketamine (35 mg/kg, intramuscularly, Aveco, Fort Dodge, Iowa) and xylazine (5 mg/kg, intramuscularly, Miles Laboratories, Shawnee, Kans.) and a helmet of dental acrylic was affixed to the calvarium. Twenty four hours later, the rabbits were anesthetized with ethyl carbamate (1.75 g/kg; Aldrich Chemical Co., Milwaukee, Wis.) and pentobarbital (15 mg/kg; Abbott Laboratories, Abbott Park, Ill.) and placed in a stereotaxic frame. A spinal needle was introduced into the cisterna magna and 300 μl of CSF was withdrawn. The animals were challenged intracisternally with 10^8 heat killed, unencapsulated pneumococcus strain R6 introduced in 200 μl of saline (time 0). One hour later, animals were treated with peptides dissolved in 1 ml of saline by intravenous injection into the right marginal ear vein. The concentration of FHA was 0.1 μM and that of the FHA Ia, Factor X II, and scrambled FHA II peptides was 10 μM. For the acetyl-FHA II, acetyl/amide-FHA II, dimer of FHA II and trimer of FHA II peptides, the concentration was 10^-3 μM. The concentration of FHA II is given in the results section. Samples of CSF were withdrawn at hourly intervals after pneumococcal inoculation and leukocyte density was measured using a cell counter (Coulter Electronics Inc., Hialeah, Fla.). CSF samples were centrifuged at 10,000×g for 5 minutes and the supernatant was stored at -70° C. until assayed for protein concentration using the bicinchoninic acid method (BCA Kit, Pierce Chemical Co., Rockford, Ill.) and for lactate concentration (Lactate Detection Kit, Sigma, St. Louis, Mo.). Statistically significant differences between treatments were determined by a one way analysis of variance test.
Loss of barrier function of the cerebral capillary endothelium during inflammation is reflected by an influx of serum proteins into the CSF. […] To examine if the peptides were able to ameliorate these measures of cerebral injury, CSF protein and lactate concentrations were measured hourly in peptide-treated and control animals (Table 10).
Leukocyte migration into the CSF in bacterial meningitis is associated with loss of barrier function of the cerebral capillary endothelium, resulting in influx of serum proteins into the CSF. To determine whether FHA peptides were able to prevent this leukocyte-dependent injury, protein concentrations in the CSF were measured throughout the course of inflammation in peptide-treated and control animals.

The test system of series [1] is human umbilical vein endothelial cells. The series is described as follows: Adherence of neutrophils to cultured (TNF-stimulated) endothelial cells. The format is cell-based. As to conditions: for neutrophil adherence blocking activity (in words): compared with FHA Ca. As for the experimental part:
Human umbilical vein endothelial cells (HUVEC, first passage, Clonetics, San Diego, Calif.) were subcultured at confluence into Terasaki tissue culture wells. After 24 hours, confluent monolayers were used for adherence assays. Monolayers were stimulated with 10 ng/ml TNF alpha (Boehringer Mannheim, Indianapolis, Ind.) at 37° C. for four hours. 30 μl of human neutrophils (10^6 /ml) were labeled with fluorescein by the method of Lo et al. (1991), J. Exp. Med. 173 1493-1500, and preincubated for 15 minutes at 37° C. with 20 μl of peptides (0.5 mM in HAP) or HAP (phosphate buffered saline containing 0.5 mg/ml human serum albumin, 3 mM glucose, and 0.3 U/ml aprotinin) as a control buffer. For some experiments, endothelial cells were pretreated from 10 minutes with Factor X or antibodies against Factor X receptor (EPR-1; Altieri et al. (1990), J. Immunol. 145, 246-253) 12H1 and 9D4 (obtained from Dr. D. Altieri, Scripps Research Institute, Lajolla, Calif.) and then washed. Neutrophils were allowed to adhere to the monolayer for 15 mins. at 37° C. and unbound cells were removed by submersion of the plate in PBS buffer. The number of adherent neutrophils was counted in a 40× microscope field and expressed as a percentage of adherence in control wells with neutrophils treated with HAP buffer alone. The mAb IB4 against CD18 (50 μg/ml; Merck Inc., Rahway, N.J.) served as a positive control.
(§2) The procedures for determining the neutrophil adherence to cultured endothelial cells and the transendothelial migration of neutrophils were identical with those of Example 9. Control values were the same as those shown in Example 9.

Another series has as its target T1, CD11b/CD18 (Homo sapiens, UniProt P05107+P11215).
T1 construct: C3bi-erythrocyte rosetting after spreading on peptide-coated wells
As to the kind of experiment: Downmodulation of CD11b/CD18 on macrophages (binding of C3bi-coated erythrocytes). Type of series: cell-based. As to conditions: 0.5 mM. The method, then:
Human monocytes were purified from buffy coats on Percoll gradients and cultured in 12.5% human serum in Teflon beakers. Macrophages were harvested from Teflon beakers after 6-8 days and suspended in HAP buffer. Terasaki wells were coated with 5 μl of peptides (0.5 mM) or anti-CD18 mAb IB4 (50 μg/ml). Control wells were coated with HAP. After 2 hours of incubation at RT, 5 μl of macrophages (5×10^5 /ml HAP) were added and allowed to spread for 45 mins. at 37° C. […] IgM-coated erythrocytes in buffer served as negative control. After washing, the number of erythrocytes bound per 100 leukocytes (adherence index) was quantitated visually under an inverted microscope.

Series [2] concerns leukocytes in CSF. The series is described as follows: Rat meningitis model (LOS): CSF leukocytosis. Type of series: in vivo. The settings on record: 4 hours. As for the experimental part: The experiments were performed according to established protocols (Wispelway et al., 1988, J. Clin. Invest., 82: 1339-1346). Purified Haemophilus influenzae type b strain DL42 lipooligosaccharide (LOS) was prepared for inoculation by sonication for 30 minutes, dilution to the desired concentration (20 ng/50 μl) in normal saline or PBS, and sonication for an additional 15 to 30 minutes just prior to use.
(§3) Briefly, anesthetized female Wistar rats were placed under a micromanipulator and inoculated intracisternally with a 25 gauge needle. After removal of 50 μl of CSF (without visible blood contamination), rats were inoculated intracisternally with 50 μl (20 ng) of LOS using a 1 ml syringe with a 25 gauge needle. Ten to fifteen minutes after inoculation with LOS, the rats were treated by intravenous administration of the test substance: a solution of an FHA peptide in PBS, a solution of a control peptide in PBS, or an equal volume of PBS alone.
(§4) Three hours after LOS inoculation, 5 μCi of ^125 I-radiolabelled albumin in 50 μl normal saline was administered intravenously. One hour later, CSF was collected via intracisternal puncture and blood samples were collected via intracardiac puncture. CSF leukocytosis was determined by manually counting white blood cells using a hemacytometer, and blood-brain barrier permeability was determined as the percent of radioactivity in whole blood that was present in the CSF. Blood samples were obtained immediately prior to inoculation, immediately prior to treatment, and at 4 hours post-inoculation for determination of peripheral white blood cell concentrations.

For series [3], the system named is leukocytes in CSF. As to the kind of experiment: Rabbit meningitis model: leukocyte migration into CSF. Type of series: in vivo. As for the experimental part: as §1
The anti-inflammatory effects of the administered peptides were assessed in the rabbit model for meningitis by the procedures described in Example 10. The animals received 1 ml of 1 uM peptide intravenously. In a slight departure from the protocol described in Example 10, samples of blood were drawn from the left marginal ear vein 30 minutes after the administration of the peptides to determine peripheral leukocyte concentrations.

Series [4] in a line: Peripheral white blood cells in rats. The settings on record: rat, in vivo. The method, then: as §4
Another series deals with blood-brain barrier. The series is described as follows: Rat meningitis model (LOS): blood-brain barrier permeability. As to conditions: rat, in vivo. Type of series: in vivo. The method, then: as §3, §4
The nature of series [5]: Stability in 50% rabbit plasma. The format is in vitro ADME. The settings on record: 37° C.
Experimental: To determine the stability of the FHA II peptide, the unmodified or the acetylated-amidated peptide were incubated in 50% rabbit plasma at 37° C.
The subject of a further series is neutrophils. As to the kind of experiment: Transendothelial migration of neutrophils. Type of series: cell-based, human. As to conditions: peptides 0.01 mM. The method, then: Transendothelial migration of neutrophils was studied based on a method described by Muller et al. (1992), J. Exp. Med. 176: 819-828. Briefly, human neutrophils suspended in ice-cold Hanks balanced salt solution (HBSS) containing Ca^++ and Mg^++ (Sigma) were fluoresceinated by adding 3.3 μl/ml 5-(and 6-)carboxyfluorescein diacetate, succinimidyl ester (CFSE, Molecular Probes Inc., Oreg.). After incubation for 30 mins. on ice, neutrophils were washed twice in cold HBSS with Ca^++ and Mg^++ and resuspended in cold Medium 199 (M199, Sigma) to a final concentration of 10^6 /ml. Human umbilical vein endothelial cells were subcultured at confluence into 96-well tissue culture plates (Becton Dickinson Labware, Lincoln Park, N.J.) that were coated with hydrated collagen gel (Vitrogen; Collagen Corporation, Palo Alto, Calif.) and fibronectin. Endothelial cells were stimulated with 10 ng/ml TNF-alpha for 4 hours and washed three times with warm M199. Neutrophils (10^6 /ml) were preincubated with 0.01 mM of peptides or with 1 μM of native FHA in M199 for 5 mins. on ice before they were added in 100 μl aliquots to the endothelial cells. For positive control, neutrophils were pre-incubated with 25 μg/ml anti-CD18 mAb IB4. For negative control, neutrophils were treated with 25 μg/ml mAb W6/32 against HLA class I antigen (Dako, Carpinteria, Calif.). The cells were incubated for 1 hour at 37° C., 5% CO2. To terminate transmigration, the supernatant fluid was aspirated and the wells were filled with warm 1 mM EGTA (Sigma) in HBSS without Ca and Mg. The plates were covered with plate sealers (Dynatech, Alexandria, Va.) and centrifuged in an inverted position at 250 g for 3 mins. at room temperature. To remove residual non-transmigrated neutrophils from the endothelial cells, monolayers were washed twice with 200 μl of warm Hanks solution without Ca and Mg. Fluorescence was quantitated using a fluorescence counter (Millipore Cytofluor™ 2300). The percentage of transmigrated neutrophils was determined by comparing the amount of fluorescence of test wells with that measured in collagen- and fibronectin-coated wells without endothelial cells. […] Percent inhibition of transendothelial migration of neutrophils was calculated by comparing the number of transmigrated cells in wells containing neutrophils treated with peptide to neutrophils treated with M199 alone and arbitrarily set at 100% transendothelial migration (TEM).
as §2

For the next series, the system named is ciliated cells. The settings on record: cited from earlier work.

T1 sequence (P05107 23-769, other chains not shown): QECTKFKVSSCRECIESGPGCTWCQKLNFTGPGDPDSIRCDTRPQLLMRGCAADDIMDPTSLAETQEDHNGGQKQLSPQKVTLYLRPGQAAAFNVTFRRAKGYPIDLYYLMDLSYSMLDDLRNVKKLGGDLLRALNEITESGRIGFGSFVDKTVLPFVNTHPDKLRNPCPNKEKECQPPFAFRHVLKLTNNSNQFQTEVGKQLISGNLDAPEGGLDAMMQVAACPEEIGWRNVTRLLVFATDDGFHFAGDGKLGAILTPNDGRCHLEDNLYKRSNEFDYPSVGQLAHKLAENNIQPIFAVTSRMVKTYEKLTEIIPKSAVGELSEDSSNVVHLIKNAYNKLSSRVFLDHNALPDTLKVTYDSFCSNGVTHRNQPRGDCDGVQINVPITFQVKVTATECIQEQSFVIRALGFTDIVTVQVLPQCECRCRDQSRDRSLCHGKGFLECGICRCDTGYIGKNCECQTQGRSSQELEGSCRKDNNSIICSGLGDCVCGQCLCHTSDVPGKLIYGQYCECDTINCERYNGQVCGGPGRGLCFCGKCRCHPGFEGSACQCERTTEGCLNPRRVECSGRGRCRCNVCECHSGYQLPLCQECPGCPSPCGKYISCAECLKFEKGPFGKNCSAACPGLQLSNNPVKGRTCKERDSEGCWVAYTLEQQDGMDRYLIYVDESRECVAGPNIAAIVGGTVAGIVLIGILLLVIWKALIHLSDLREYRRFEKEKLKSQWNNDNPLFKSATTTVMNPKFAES

Regarding `OC[C@H]1O[C@@H](O[C@H]2[C@H](O)[C@@H](O)C(O)O[C@@H]2CO)[C@H](O)[C@@H](O)[C@H]1O` (stereo partly drawn) [Lactose], the “colonization of rabbit lung” value in the series with B. pertussis is listed as “decrease colonization of rabbit lung”.
Regarding `CC1(C)S[C@@H]2[C@H](NC(=O)Cc3ccccc3)C(=O)N2[C@H]1C(=O)O` [penicillin], in the series on albumin, the bound to albumin is around 80%.
With AADPHQGVLAQGDIIMDAKG [FHA Cc], the “Total protein in CSF” value was determined as 1.36 ± 0.16 mg/mL in the series with blood brain barrier (6 hours) and 1.90 ± 0.22 mg/mL in the series with blood brain barrier (7 hours). The “neutrophil adherence blocking activity (in words)” value in series [1] (0.5 mM) is given as “activity was detectable above background but was not statistically different from buffer alone”. For the same compound, the “effect on CD11b/CD18 (in words)” value with CD11b/CD18 was “no significant effect”.
Regarding Ac-ETKEVDG-NH2 [Acetyl/Amide-FHA II], in the series on blood brain barrier (10 μM peptides, 0.1 μM FHA), the “protein influx into CSF and lactate generation (in words)” value was “significantly reduced protein influx into the CSF and generation of lactate”. Besides, the “Leukocytosis (CSF leukocyte concentration)” value (“Leukocytosis” below) in the series with leukocytes in CSF [2] (600 nmol i.v.) is “approximately 10,000 cells/ml”; in the series on leukocytes in CSF [2] (600 nmol i.v., listed as ac/am FHA II), 10,500 ± 8523 cells/ml. Moreover, the “interference with neutrophil adherence (in words)” value in [1] (peptides 0.5 mM) was “significantly enhanced the ability of peptide FHA II to block neutrophil adherence to endothelia”. The “leukocytes in CSF” value in the series on leukocytes in CSF [3] (6 hours, 10 nmoles i.v.) was 3011±684 cells/μl. For the same compound, the neutropenia result in [4] was “No neutropenia”. For the same compound, in the series with blood-brain barrier, the “inhibition of blood-brain barrier permeability (in words)” value was “not observed”. Besides, in series [5], the “concentration over time (in words)” value is recorded as “remained unchanged over 48 hours”.
In the case of “Ac-VEEDTKG-NH2 [scrambled ac/am FHA II, VEEDTKG, reference compound]”, the “Leukocytosis” value in the series on leukocytes in CSF [2] (600 nmol i.v.) was 14,287 ± 10,199 cells/ml.
In the case of GTLLLRNDALTENGTVTISA [FHA Cd], the “Total protein in CSF” value worked out at 1.71 ± 0.19 mg/mL in the series with blood brain barrier (6 hours) and 2.03 ± 0.57 mg/mL with blood brain barrier (7 hours). In addition, the “inhibition of neutrophil adherence to endothelial cells” value in [1] (0.5 mM) is recorded as below 15%. In addition, the “leukocyte recruitment into CSF (in words)” value in the series on leukocytes in CSF [3] (1 μM peptide i.v.) was “no effect”. Besides, the “effect on CD11b/CD18 (in words)” value with CD11b/CD18 is on record as “no significant effect”. In the series with neutrophils, the “% Inhibition of TEM” value amounted to 6 ± 6%.
As for “IDVPQHGGAMRDLGIAQGKD [scrambled FHA Ca, reference compound]”, the “Leukocytosis” value in the series on leukocytes in CSF [2] (100 nmol i.v.) is 20,700 ± 7,400 cells/ml.
As to RADPHQGVLAQGDIIMDAKG [FHA Cb], the “Total protein in CSF” value in the series with blood brain barrier (6 hours) amounted to 1.91 ± 0.24 mg/mL; in the series with blood brain barrier (7 hours), 2.28 ± 0.28 mg/mL. Further, the “neutrophil adherence blocking activity (in words)” value in [1] (0.5 mM) is recorded as “activity was decreased by half”. The “leukocyte migration into CSF (in words)” value in the series on leukocytes in CSF [3] (0.1 μM peptide i.v.) was “ineffective”. Further, in the series on leukocytes in CSF [3] (7 hours, 1 ml of 1 uM peptide i.v.), the “leukocyte density in CSF” value was 2788±1022 cells/μl CSF. The “effect on CD11b/CD18 (in words)” value in the series with CD11b/CD18 is given as “no significant effect”. For the same compound, the “% Inhibition of TEM” value in the series on neutrophils is 8 ± 9%.
For lactosamines, the “inhibition of adherence of B. pertussis to human ciliated cells” value with ciliated cells was “Inhibition of adherence”.
